Measured values from paper PMC5790467, “Enhanced anti-tumor efficacy and mechanisms associated with docetaxel-piperine combination- in vitro and in vivo investigation using a taxane-resistant prostate cancer model” (Oncotarget, 2017).
In brackets after ≈: the same amount, converted by molar mass. Read-outs that look alike come from different tables or passages of the source.

Key:
PC3-TxR tumor xenografts = test: Tumor growth in mice with PC3-TxR (taxane-resistant) tumor xenografts; format: in vivo, ICR-NOD/SCID mice; details: TxR tumor xenografts; two weeks after drug administration; DTX 20 mg/kg once a week i.v., PIP 50 mg/kg daily p.o.
Method: The following experimental protocol was adopted after approval by the Animal Research Ethics Committee at the Chinese University of Hong Kong. PC3 and PC3-TxR cells were cultured in RPMI 1640 medium containing 10% FBS and 1% penicillin-streptomycin in a humidified atmosphere of 5% CO2 at 37°C. PC3 and PC3-TxR cell pellets were re-suspended in serum free RPMI1640 and diluted by Matrigel™ Basement Membrane Matrix (BD Biosciences, Bedford, MA, USA) to the density of 3.33 × 10^6cells/ml. Male ICR-NOD/SCID mice (Laboratory Animal Services Center at the Chinese University of Hong Kong) weighing 25 to 30 g (age 6–8 weeks) was anesthetized with an intraperitoneal injection of a cocktail containing 87 mg/kg ketamine and 8.7 mg/kg xylazine (diluted with saline and the injection volume was about 0.1 ml). The cell suspension was injected subcutaneously to both the left and right flank region. The tumors were allowed to grow for about 2 weeks. Tumor volumes were measured twice per week (tumor volume = [(W^2 × L)/2], where W is the tumor measurement at the widest point, and L is the tumor dimension at the longest point). When the tumors reach about 100 mm^3, treatment was started and the date was designated as Day 0.

[1] = Body weight and tolerability in mice with TxR tumor xenografts
Method: For oral administration of PIP, in 1 ml of PIP dosing solution, 100 µl of its stock solution was solubilized with 500 µl of PEG 400 and 400 µl of physiological saline and the mixture was administrated orally to mice at the dose of 0.1 ml/10 g body weight. […] On Day 0, mice with PC3 cell xenografts were divided into two groups and mice with PC3-TxR cell xenografts were divided into four groups. Mice in each group were treated according to Supplementary Table 3 and the drug dosing lasted for 2 weeks with body weight and tumor sized measured twice per week. […] At the end of experiment, the mice were anesthetized followed by haemospasia to death by cardiac puncture.

P-gp = P-gp (Homo sapiens, UniProt P08183); test: Intracellular DTX accumulation in PC3-TxR cells; format: cell-based; details: 100 nM DTX; PIP at 50 μg/ml; 120 min; positive control 10 μg/ml of PSC833
P-gp, sequence (P08183 whole entry): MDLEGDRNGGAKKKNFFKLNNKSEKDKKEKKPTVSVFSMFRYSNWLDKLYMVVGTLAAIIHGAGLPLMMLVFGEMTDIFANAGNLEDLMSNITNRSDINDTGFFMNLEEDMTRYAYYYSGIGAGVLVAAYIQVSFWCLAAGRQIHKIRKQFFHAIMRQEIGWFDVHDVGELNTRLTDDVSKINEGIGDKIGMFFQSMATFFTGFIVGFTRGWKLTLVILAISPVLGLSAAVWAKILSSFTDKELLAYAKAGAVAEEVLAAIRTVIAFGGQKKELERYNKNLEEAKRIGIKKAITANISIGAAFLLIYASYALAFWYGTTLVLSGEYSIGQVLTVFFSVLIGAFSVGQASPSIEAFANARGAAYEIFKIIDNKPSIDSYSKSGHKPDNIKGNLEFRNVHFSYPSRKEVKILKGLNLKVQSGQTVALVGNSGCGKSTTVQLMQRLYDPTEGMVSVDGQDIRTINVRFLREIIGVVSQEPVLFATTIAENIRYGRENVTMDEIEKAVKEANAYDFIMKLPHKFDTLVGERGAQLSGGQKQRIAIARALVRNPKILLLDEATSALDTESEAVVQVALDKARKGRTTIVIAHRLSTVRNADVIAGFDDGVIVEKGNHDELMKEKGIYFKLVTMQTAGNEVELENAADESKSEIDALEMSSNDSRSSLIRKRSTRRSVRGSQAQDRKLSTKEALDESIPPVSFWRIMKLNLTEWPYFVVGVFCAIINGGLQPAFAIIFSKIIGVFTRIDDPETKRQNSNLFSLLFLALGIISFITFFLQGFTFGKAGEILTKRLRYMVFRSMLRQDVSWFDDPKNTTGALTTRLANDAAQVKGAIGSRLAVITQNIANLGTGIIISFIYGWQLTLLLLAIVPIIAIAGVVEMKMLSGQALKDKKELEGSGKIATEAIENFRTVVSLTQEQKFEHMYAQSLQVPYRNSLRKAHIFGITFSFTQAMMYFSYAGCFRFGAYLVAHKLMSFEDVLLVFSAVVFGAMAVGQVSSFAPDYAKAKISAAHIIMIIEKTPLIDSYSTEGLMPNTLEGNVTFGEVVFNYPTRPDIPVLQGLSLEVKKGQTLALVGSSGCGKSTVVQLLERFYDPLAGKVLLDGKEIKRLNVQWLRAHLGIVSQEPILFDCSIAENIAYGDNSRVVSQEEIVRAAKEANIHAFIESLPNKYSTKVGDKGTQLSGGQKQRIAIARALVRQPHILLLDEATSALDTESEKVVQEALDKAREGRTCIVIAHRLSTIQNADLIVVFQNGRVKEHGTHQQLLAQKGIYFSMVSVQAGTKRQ
Method: The PC3 and PC3-TxR cells were seeded in 6-well plate with density of 1×10^4 cells/ml and grew for 24 hours. […] The cells were then lysed and the protein level was measured using a BCA approach (Bio Rad Laboratory, Hercules, CA, USA). […] Briefly, to 0.1 ml of cell lysate, 0.3 ml of tert-butyl methyl ether was added and vortexed for 3 min. The upper organic layer was separated and evaporated to dryness. The residue was reconstituted using 0.1 ml of 80% acetonitrile and 10 μl was injected to an HPLC-MS/MS system for quantification. Paclitaxel was used as internal standard. The intracellular concentration was normalized per protein concentration. […] PSC833 (10 μg/ml) was used as positive control. […] The amount of DTX was compared among these treatment groups.

[2] = system: CYPs (hepatic metabolism of DTX); test: In vitro inhibition of hepatic metabolism of DTX in mouse liver microsomes; format: in vitro ADME, ICR mice; details: ICR, pH 7.4, probe DTX (docetaxel) 2 μM
Method: Livers of ICR-NOD/SCID mice administrated with vehicle control or PIP were collected for the ex vivo metabolism study. In vitro metabolic reactions were performed in blank ICR mice liver. Hepatic microsomes were prepared according to the method of Hill. The system of enzymatic incubation was conducted based on the condition reported by Mooiman et al. with minor modification. […] Drug mixture was pre-incubated with mice liver microsome at 0.5 mg/ml in 50 mM phosphate buffer (pH7.4) containing 2.6 mM of NADP^+, 7.1 mM of glucose-6-phosphate and 6.5 mM of magnesium chloride for 15 min. The reaction was initiated by the addition of glucose-6-phosphate dehydrogenase at 0.8 U/ml. After incubation for 60 min, the reaction was terminated by the addition of 200 µl of ice-cold acetonitrile/methanol (50:50, v/v) containing glibenclamide at 100 ng/ml. The mixture was centrifuged at 13000 rpm for 10 min and the supernatant was injected into LC/MS/MS for analysis.

PC3-TxR cells = test: Cell viability (cytotoxicity) of PC3-TxR cells; format: cell-based; details: Homo sapiens, triplicate samples, read-out: IC50, cytotoxicity of PIP on PC3-TxR
From the text: www.impactjournals.com/oncotarget/ Oncotarget, Supplementary Materials 2017
investigation using a taxane-resistant prostate cancer model
Supplementary Figure 1: Cell viability (measured from triplicate samples) of PC3-TxR cells. (A) The cytotoxicity of PIP
(1 picture or pasted object on this page, not shown here)

Caco-2 monolayer model = system: Caco-2 monolayer model; design: method as in PMID 12130727; details: cited from earlier work
MCF-7/DOX = system: MCF-7/DOX; design: method as in PMID 21802927; details: PIP at 50 μM; cited from earlier work
A-549/DDP = system: A-549/DDP; design: method as in PMID 21802927; details: PIP at 50 μM; cited from earlier work
[3] = i.g.; female Fischer rats; cited from earlier work

What does the source list for `O=C(/C=C/C=C/c1ccc2c(c1)OCO2)N1CCCCC1` [PIP, 1-piperoyl piperidine]?
percentage of tumor size increase (PC3-TxR tumor xenografts): 196%; response of mice to PIP at higher dose ([1]; PIP at 100 mg/kg, mice implanted with taxane-resistant prostate cancer): severe excitation responses; percentage of bodyweights ([1]; TxR tumor xenograft mice, two weeks of treatment, control 96%): 98%; intracellular DTX concentration in PC3-TxR cells (P-gp): increased to a level similar to that in the positive control; IC50 at 60 min [2]: 37.3 µM; IC50 (PC3-TxR cells): 47.3 µg/mL (≈ 166 µM); IC50 (Caco-2 monolayer model; read-out: IC50 of inhibition of the transport of cyclosporine A): 74.1 µM; IC50 (Caco-2 monolayer model; read-out: IC50 of inhibition of the transport of digoxin): 15.5 µM; enhancement of the sensitivity to doxorubicin (MCF-7/DOX): 32 folds; enhancement of the sensitivity to doxorubicin (A-549/DDP): 14 folds; LD50 [3]: 514 mg/kg
